Data taken from patent publication US8680081B2, “Prophylactic treatment of migraine” (priority 2000, dated 2014).

What was measured:
[1] = Prophylactic treatment of migraine by regular administration, patient case reports; type: in vivo, human
Procedure: The method for prophylactic treatment includes regular administration of a therapeutically effective amount of a combination comprising a cyclooxygenase-2 inhibitor and acetylsalicylic acid or active derivative. Administration of the combination including a cyclooxygenase-2 inhibitor may include administration of one or more cyclooxygenase-2 inhibitors.
The combination is administered regularly, meaning that the combination is administered periodically or aperiodically over a period of several days or weeks, in an effort to prevent migraine attacks, and is not merely administered in response or reaction to migraine symptoms. Regular administration may include once-daily administration of each agent, administration on alternate days, or any other periodic or aperiodic schedule that is determined to be effective as a planned course of treatment for preventing migraine.
A patient with an established history of recurrent migraine was treated with a daily oral dose of 25 milligrams of VIOXX (rofecoxib tablets, Merck & Co, Inc., Whitehouse Station, N.J.). […]
A patient with an established history of recurrent migraine was treated with a daily oral dose of 200 milligrams of CELEBREX (celecoxib capsules, G.D. Searle & Co., Chicago, Ill.).
A patient with a well-established history of recurrent migraine attacks heralded by an aura of dysphasia (i.e., difficulty in finding words) begins taking 25-50 milligrams of rofecoxib at the onset of the dysphasic symptoms. […] Because they have lately suffered more than four migraine attacks per month, on the advice of their physician they continue daily dosing of 12.5-25 milligrams of rofecoxib over time. […]

[2] = Targeted prophylactic treatment of migraine before a time window, trigger or attack, patient case reports; type: in vivo, human
From the text: In another embodiment, the invention provides a method for targeted prophylactic treatment of a migraine condition. The method includes determining a time window or selected time period in which a patient desires to be free from migraine; and administering to the patient, at a time prior to the determined time window, a therapeutically effective amount of a cyclooxygenase-2 inhibitor, either alone or in combination with acetylsalicylic acid or active derivative, to prevent or reduce migraine symptoms during the time window.
Prior to the determined time window, a therapeutically effective amount of a cyclooxygenase-2 inhibitor is administered to the patient. By “prior,” it is meant that the administration is temporally before the determined time window, but sufficiently close in time so that the prophylactic effect of the cyclooxygenase-2 inhibitor is experienced throughout most or all of the determined time window.
A patient with an established history of migraine brought on by glare associated with an ophthalmic operating room microscope was treated with 6 milligrams of IMITREX by injection (Glaxo Wellcome Inc.), and an oral dose of 12.5 to 25 milligrams of VIOXX (Merck & Co, Inc.) the night before a scheduled ophthalmic operation.
(§1) A patient with an established history of migraine brought on by glare associated with repeated use of a slit lamp biomicroscope was treated with an oral dose of 12.5 to 25 milligrams of VIOXX (Merck & Co, Inc.) the night before a scheduled clinic.
as §1, with “Inc.) and 325 milligrams aspirin (over-the-counter aspirin tablets)” for “Inc.)”
(§2) A patient with an established history of migraine brought on by occasional consumption of red wine (as a beverage or in a sauce or dressing) was treated with an oral dose of 12.5 to 25 milligrams of VIOXX (Merck & Co, Inc.) on the same day as such consumption before migraine attack symptoms are evident.
as §2, with “Inc.) and 162.5 milligrams aspirin (over-the-counter aspirin tablets)” for “Inc.)”
(§3) A patient with a well-established history of recurrent migraine attacks learns to recognize their prodromal symptoms of altered mood, irritability, fatigue, and craving for sweets which typically occur 3 to 24 hours prior to the fully developed phase of their migraine. They learn over time that these prodromal symptoms eventually lead to a migraine attack in most cases. Their migraine attacks typically include unusual sensitivity to light and sound, difficulty concentrating, headache, and less commonly, nausea. As soon as they recognize the prodromal symptoms, they take a one-time dose of 25-50 milligrams of rofecoxib, followed by 12.5-25 milligrams of rofecoxib daily.
as §3, with “rofecoxib and 162.5-325 milligrams aspirin,” for “rofecoxib,”, “rofecoxib and 162.5-325 milligrams aspirin” for “rofecoxib”, “daily. […]” for “daily.”

[3] = Example 1, daily oral 25 milligrams VIOXX, treatment period three to four weeks

## Cc1ccc(-c2cc(C(F)(F)F)nn2-c2ccc(S(N)(=O)=O)cc2)cc1 [CELEBREX, 4-[5-(4-methylphenyl)-3-(trifluoromethyl)-1H-pyrazol-1-yl]]
[1]; Example 4, daily oral 200 milligrams CELEBREX
  intensity of the symptoms of a subsequent migraine: reduced intensity
[1]; Example 4, daily oral 200 milligrams CELEBREX, treatment period ten to fourteen days
  migraine symptoms: free of migraine symptoms

## CS(=O)(=O)c1ccc(C2=C(c3ccccc3)C(=O)OC2)cc1 [VIOXX, 4-[4-(methylsulfonyl)phenyl]-3-phenyl-2(5H)-furanone]
[2]; Example 6, glare-induced migraine, oral 12.5 to 25 milligrams VIOXX the night before
  migraine symptoms before, during and after the scheduled clinic: free of migraine symptoms
[2]; Example 8, further daily oral 12.5 to 25 milligrams VIOXX after red wine
  duration of therapeutic benefit: extended for several days
[2]; Example 8, red wine-induced migraine, oral 12.5 to 25 milligrams VIOXX same day as consumption
  migraine symptoms in the period when symptoms would normally be expected: either free of, or experienced substantially reduced, migraine symptoms
[2]; Example 10, at prodromal symptoms one-time 25-50 milligrams rofecoxib, then 12.5-25 milligrams daily
  migraine attack symptoms: either free of, or has greatly reduced, migraine attack symptoms
[2]; Example 10, continued daily 12.5-25 milligrams rofecoxib
  period of benefit with continued daily dosing: several days (or longer)
[2]; Example 12, 25-50 milligrams rofecoxib at onset of dysphasic aura
  intensity and length of the migraine attack symptoms: reduction in the intensity and length
[1]; Example 1, daily oral 25 milligrams VIOXX, first week of use
  migraine symptoms: free of migraine symptoms
[1]; [3]
  frequency of migraine attacks: reduced frequency
  intensity of the symptoms of subsequent migraine attacks: reduced intensity
[1]; Example 12, continued daily 12.5-25 milligrams rofecoxib
  frequency and intensity of the migraine attacks: substantial decrease in the frequency and intensity
